Source: patent US20220265814A1, “R[…] FOR CORONA VIRUS DISEASE 19 AND COMBINATION THERAPY USING THE SAME” (priority 2021, published 2022)

Tests used:
Format in all cases: cell-based
[1] = tested on: recombinant adenovirus (GFP tagging); assay: antiviral activity against recombinant adenovirus (GFP fluorescence intensity) in HEK293A cells; conditions: for inhibition at 50 µM: unidentified adenovirus, HEK293-A, 72 h, read-out: virus inhibitory activity
Protocol: (§1) After dispensing HEK293A cells at 10,000 cells/well on a 96-well plate and stabilizing for 24 hours, the recombinant adenovirus (GFP tagging, MOI=0.5) prepared in Example and 18 compounds listed in Table 1 below (50 μM)) were treated and incubated for 24, 48 and 72 hours, the GFP fluorescence intensity (Excitation=485 nm, Emission=528 nm) was observed.

HEK293A cells = assay: cell death / cytotoxicity in compound-treated HEK293A cells; conditions: 50 μM compound, after 72 hours of treatment
[2] = tested on: Herpes simplex virus (HSV); assay: antiviral activity against herpes simplex virus (HSV), same manner as the adenovirus test; conditions: 50 μM, after 24 hours, 48 hours and 72 hours (FIG. 14)
Protocol: as §1
The experiment was performed in the same manner as in the previous experiment, except that the virus type was changed to HSV and the antiviral activity was examined.

[3] = tested on: COVID-19 virus (COVID19 recombinant adenovirus); assay: COVID19 antibody-antigen polymerization reaction on combination treatment with ECCA A (Cyto X cell viability)

Structure (SMILES): C=C(C)[C@@H]1CC[C@]2(C(=O)O)CC[C@]3(C)[C@H](CC[C@@H]4[C@@]5(C)[C@@H](C(=O)O)[C@H](O)C(C)(C)[C@@H]5CC[C@]43C)[C@@H]12 [Compound C2, Ceanothic acid]
- inhibition at 50 µM [1]: ≥ 50%

Structure (SMILES): C=C(C)[C@@H]1CC[C@]2(C(=O)O)CC[C@]3(C)[C@H](CC[C@@H]4[C@@]5(C)C[C@@H](OC(=O)/C=C/c6ccc(O)cc6)[C@H](O)C(C)(C)[C@@H]5CC[C@]43C)[C@@H]12 [Compound C4, 2-O-E-p-coumaroyl alphitolic acid]
- cell death (HEK293A cells): 100%
- virus inhibitory activity (in words) ([1]; 50 μM compound, HEK293A cells, recombinant adenovirus MOI=0.5): excellent virus inhibitory activity

Structure (SMILES): C=C(C)[C@@H]1CC[C@]2(C(=O)O)CC[C@]3(C)[C@H](CC[C@@H]4[C@@]5(C)CC[C@H](O)C(C)(C)[C@@H]5CC[C@]43C)[C@@H]12 [Compound C10, ECCA A]
- antiviral activity on HSV [2]: most excellent
- antigen-antibody polymerization reaction [3]: effective antigen-antibody polymerization reaction was confirmed
- binding to the antigen fusion protein [3]: excellent
- antiviral activity on adenovirus, compared among C2, C6, C8 and C10 ([1]; 50 μM, after 24 hours, 48 hours and 72 hours (FIG. 13)): most excellent
- inhibition at 50 µM [1]: ≥ 50%
